“Also recorded” adds a separate entry of the source.
Tests used:
[1] = molecular target: T1, preformed R2R3 (WT) fibrils (Homo sapiens, UniProt P10636); assay: Elongation of preformed R2R3 (WT) fibrils, ThT; type: biochemical; conditions: R2R3 WT pre-aggregated 24 h, compound 10 μM; for ThT-stained aggregates from post-treatment samples, confocal imaging: further 24 h
T1 construct: Peptides spanning R2R3—including PHF6 and PHF6*; purchased ProteoGenix (Schiltigheim, France); host or cells: chemical synthesis (custom peptide)
T1 sequence (P10636 592-653 limits assumed): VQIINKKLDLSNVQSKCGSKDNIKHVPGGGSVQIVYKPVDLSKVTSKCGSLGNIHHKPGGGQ
Protocol: (§1) Peptides were pre‐aggregated for 24 h with aggregation kinetics monitored by ThT fluorescence, after which 10 μM PUR or OLC was added, followed by an additional 24–30 h of incubation (Figure 4a). Aggregation kinetics was monitored by ThT fluorescence, and elongation was quantified as the AUC following compound addition, normalized to each replicate's maximum pre‐treatment fluorescence (Figure 4b). […] WT peptide fibril elongation was reduced to 15.5 ± 2.8% (PUR) and 45.2 ± 3.2% (OLC), and P301L peptide fibril elongation was limited to 31.8 ± 0.6% (PUR) and 85.6 ± 2.2% (OLC) (Figure 4b). Fluorescence microscopy imaging further confirmed the presence of reduced ThT‐positive aggregates following the addition of PUR and OLC (Figure S12). Similar inhibition trends, with PUR outperforming OLC, were also observed for V287I and N279K peptides (Figure S12).
FIGURE 4 Purpurin (PUR) and oleocanthal (OLC) inhibit elongation of preformed wild‐type (WT) and P301L tau fibrils. (a) The thioflavin T (ThT) fluorescence kinetics of pre‐aggregated R2R3 (WT and P301L) tau peptides treated with PUR or OLC (10 μM). Peptides were first allowed to aggregate for 24 h, followed by compound addition and continued incubation for an additional 24–30 h. Vertical dashed lines indicate the time point of compound addition. Curves are normalized to each replicate's maximum pre‐treatment ThT fluorescence. Source data are provided in the Data Availability Statement section. Mean ± SEM (n ≥ 3). (b) Aggregation levels post‐treatment, expressed as a percentage of control (untreated fibrils), calculated from the area under the curve after compound addition. Mean ± SEM (n ≥ 3). ***p < 0.001, **p < 0.01, one‐way ANOVA (Tukey's post hoc test).
Figure S12. Confocal imaging of ThT-stained aggregates from post-treatment samples in Figure 4. R2R3 (WT and P301L) tau peptides were incubated for 24 h to allow initial aggregation, followed by the addition of PUR or OLC (10 µM). After a further 24 h, reaction mixtures from compound-treated wells were collected, embedded in 0.05% low-melting agarose, and processed for imaging as described in Figure S11. […] Scale bar: 50 μm.

[2] = test system: preformed R2R3 (N279K) fibrils; assay: Elongation of preformed R2R3 (N279K) fibrils, ThT; type: biochemical; conditions: R2R3 N279K pre-aggregated 24 h, compound 10 μM
Protocol: as §1
Figure S13. […] (a) ThT fluorescence kinetics of pre-aggregated R2R3 (V287I and N279K ) tau peptides treated with PUR or OLC (10 µM). Peptides were first allowed to aggregate for 24 h, followed by compound addition and continued incubation for an additional 24-30 h. […] Curves are normalized to each replicate’s maximum pre-treatment ThT fluorescence. […] (b) Aggregation levels post-treatment, expressed as a percentage of control (untreated fibrils), calculated from the AUC after compound addition. […]

[3] = test system: Tau RD P301S FRET Biosensor cells; assay: Biosensor cell seeding assay, aggregation products formed with compound (co-aggregation); type: cell-based; conditions: 100 nM transduced, 48 h
Protocol: Tau peptides were aggregated with or without PUR or OLC in a 7.4 pH aggregation buffer without ThT. After 48 h, the contents of each well were pooled to a final total volume of 120 μL. The concentration of the pooled Aggregation Reaction Products was measured using the Pierce™ BCA Protein Assay Kit (Thermo Fisher Scientific Inc., Cat. # 23225). The reaction products were standardized for cell transduction to a final concentration of 100 nM for both control and drug‐treated samples. The pooled aggregation mixture was sonicated using a Branson Ultrasonic™ Sonifier Cup Horns (Marshall Scientific, Hampton, NH, USA) at 30% amplitude (15 s ON and 15 s OFF for 1 min) to fragment larger aggregates into smaller ones, facilitating consistent transduction.
Tau RD P301S FRET Biosensor cells were plated at 5 × 10^3 cells per well in PhenoPlate 384‐well, black, optically clear flat‐bottom plates (Revvity; Part # 6057302) pre‐coated with 50 μg/mL Poly‐ᴅ‐Lysine (Sigma‐Aldrich, Cat. # P6407). After plating, cells were incubated for 30 min at room temperature to promote better cell spreading before returning the plates to the incubator.
The next day, cells were transduced with 100 nM of aggregation mixture, which were either: (i) prepared in the absence (control) or presence of 10 μM PUR or OLC for co‐aggregation studies (Figure 5), or (ii) prepared exclusively in the absence of compounds for post‐transduction treatment studies (Figure 6). The aggregation mixtures were premixed with 0.2 μL per well TurboFect™ Transfection Reagent (Thermo Fisher Scientific Inc., Cat. # R0533) in 10 μL Opti‐MEM™ (Thermo Fisher Scientific Inc., Cat. #11058021) and added to cells.
For co‐aggregation studies (Figure 5), cells were cultured for 48 h after transduction before processing for imaging. For post‐transduction treatment studies (Figure 6), cells were cultured for 24 h following transduction, then treated with PUR or OLC at concentrations ranging from 0 to 10 μM, and incubated for an additional 24 h.
In both experiments (Figures 5 and 6), cells were fixed after a total of 48 h with 2% paraformaldehyde (Electron Microscopy Services, Cat. #15714‐1 L) for 10 min at room temperature, washed once with 1× PBS, and stained with 10 μM Hoechst‐33342 nuclear dye (Invitrogen, Cat. #H21492) for 10–15 min. To preserve samples for imaging, 1% glycerol in deionized water was added to each well.
Cells were imaged on a Cell Voyager 7000S high‐content imaging system (Yokogawa, Tokyo, Japan) with a 20× objective. CFP/YFP inclusions of seeded tau were detected using a 488 nm laser line (Ex = 460–490 nm, Em = 500–550 nm), and Hoechst‐stained nuclei were detected using a 405 nm laser line (Ex = 360–400 nm, Em = 410–480 nm). At least 10–15 focal areas per well were imaged for each replicate. Image analysis was performed using Signals Image Artist (Revvity) to quantify the number of cells (Hoechst‐stained nuclei) and intracellular CFP/YFP inclusions. Total inclusions per well were normalized to cell confluence and are presented as normalized seeding for graphing.

[4] = R2R3 N279K aggregated with 10 μM compound
[5] = R2R3 P301L aggregated with 10 μM compound
[6] = R2R3 V287I aggregated with 10 μM compound
[7] = R2R3 WT aggregated with 10 μM compound

O=C1c2ccccc2C(=O)c2c(O)c(O)cc(O)c21 [PUR, purpurin] was tested. Which remaining activity at 10 µM ([1]; further 24–30 h, read-out: fibril elongation, aggregation post-treatment as percentage of control (AUC after compound addition)) did it give?
Its remaining activity at 10 µM is 15.5 ± 2.8%.

And the “ThT-stained aggregates from post-treatment samples, confocal imaging” value [1]?
The value was “either a complete absence or a marked reduction in ThT signal”.

What about the “elongation of preformed fibrils” value [2] of the same molecule?
The value was “inhibit the elongation”.

And the “intracellular seeding (CFP/YFP inclusions) by aggregation products” value [3, 4]?
The value was “abolished the formation of species capable of inducing intracellular seeding; also recorded: significantly reduced seeding”.

What about the “intracellular seeding (CFP/YFP inclusions) by aggregation products” value [3, 5] of the same molecule?
The value was “abolished the formation of species capable of inducing intracellular seeding; also recorded: significantly reduced seeding”.

What about the “intracellular seeding (CFP/YFP inclusions) by aggregation products” value [3, 6] of the same molecule?
The value was “abolished the formation of species capable of inducing intracellular seeding; also recorded: near‐complete inhibition of seeding”.

And the “intracellular seeding (CFP/YFP inclusions) by aggregation products” value [3, 7]?
Its value is “did not affect the seeding competency”.

With C/C=C(/C=O)[C@@H](CC=O)CC(=O)OCCc1ccc(O)cc1 [OLC, oleocanthal] as the molecule, how does the “fibril elongation, aggregation post-treatment as percentage of control (AUC after compound addition)” value ([1]; further 24–30 h) read?
The value was 45.2 ± 3.2%.

What about the “ThT-stained aggregates from post-treatment samples, confocal imaging” value [1] of the same molecule?
Its value is “either a complete absence or a marked reduction in ThT signal”.

And the “elongation of preformed fibrils” value [2]?
The value was “inhibit the elongation”.

What about the “intracellular seeding (CFP/YFP inclusions) by aggregation products” value [3, 4] of the same molecule?
The value was “abolished the formation of species capable of inducing intracellular seeding; also recorded: significantly reduced seeding”.

What about the “intracellular seeding (CFP/YFP inclusions) by aggregation products” value [3, 5] of the same molecule?
The value was “abolished the formation of species capable of inducing intracellular seeding; also recorded: significantly reduced seeding”.

And the “intracellular seeding (CFP/YFP inclusions) by aggregation products” value [3, 6]?
The value was “abolished the formation of species capable of inducing intracellular seeding; also recorded: near‐complete inhibition of seeding”.

What about the “intracellular seeding (CFP/YFP inclusions) by aggregation products” value [3, 7] of the same molecule?
The value was “effectively abolishing intracellular seeding”.
